target: T1, human p38alfa (SAPKa) enzyme (Homo sapiens, UniProt Q16539); assay: p38 enzymatic inhibition assay (FRET, biotinylated ATF2 substrate); format: biochemical; details: 1 h pre-incubation; ATF2 0.62 μM, ATP 60 μM; 25° C.; read-out: p38α IC50
T1 construct: purchased University of Dundee
Method: Enzymatic activity assay was performed in 96-well microtiter plates (Corning, catalog number # 3686) using a total volume of 50 μl of an assay buffer composed of 50 mM HEPES pH 7.5, 10 mM MgCl2, 1.75 mM Na3VO4.
Various concentrations of the test compound or vehicle controls were pre-incubated for one hour with 0.055 μg/ml of the human p38alfa (SAPKa) enzyme (obtained from University of Dundee). The reaction started by addition of biotinylated ATF2 substrate and ATP in concentrations around their Km values (final concentration 0.62 μM and 60 μM respectively) and took place for one hour at 25° C. Addition of the detection reagents, streptavidin—XL665 and anti-phosphoresidue antibody coupled to Europium cryptate, caused the juxtaposition of the cryptate and the XL665 fluorophore, resulting in fluorescence energy transfer (FRET). The FRET intensity depends on the amount of bounded cryptate antibody, which is proportional to the extent of substrate phosphorylation. FRET intensity was measured using Victor 2V spectrofluorometer.
Data were analyzed by non-linear regression (Hill equation) to generate a dose-response curve. The calculated IC50 value is the concentration of the test compound that caused a 50% decrease in the maximal FRET intensity.

T1 sequence (Q16539 whole entry): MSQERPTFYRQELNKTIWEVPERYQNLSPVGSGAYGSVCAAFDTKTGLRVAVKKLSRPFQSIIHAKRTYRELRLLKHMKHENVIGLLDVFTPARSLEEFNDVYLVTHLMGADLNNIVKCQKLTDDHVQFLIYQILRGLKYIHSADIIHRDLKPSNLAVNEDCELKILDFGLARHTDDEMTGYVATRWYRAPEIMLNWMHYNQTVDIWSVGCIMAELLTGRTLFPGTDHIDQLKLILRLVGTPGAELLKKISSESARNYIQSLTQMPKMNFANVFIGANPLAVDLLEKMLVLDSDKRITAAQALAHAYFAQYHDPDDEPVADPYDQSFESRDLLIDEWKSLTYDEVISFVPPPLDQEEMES

Row | SMILES | IC50 [nM]
1 | Cc1ccc(C(=O)NC2CC2)cc1-c1ccn2c(C(C)(C)C)nnc2c1 [Example 1, 3-(3-tert-Butyl-[1,2,4]triazolo[4,3-a]pyridin-7-yl)-N-cyclopropyl-4-methylbenzamide] | 16
2 | Cc1ccc(C(=O)NC2CC2)cc1-c1ccn2c(-c3ccccc3Cl)nnc2c1 [Example 6, 3-(3-(2-Chlorophenyl)-[1,2,4]triazolo[4,3-a]pyridin-7-yl)-N-cyclopropyl-4-methylbenzamide] | 6
3 | Cc1ccc(C(=O)NC2CC2)cc1-c1ccn2c(NCC3CC3)nnc2c1 [Example 7, N-Cyclopropyl-3-(3-(cyclopropylmethylamino)-[1,2,4]triazolo[4,3-a]pyridin-7-yl)-4-methylbenzamide] | 75
4 | Cc1c(F)cc(C(=O)NC2CC2)cc1-c1ccn2c(C(C)(C)C)nnc2c1 [Example 9, 3-(3-tert-Butyl-[1,2,4]triazolo[4,3-a]pyridin-7-yl)-N-cyclopropyl-5-fluoro-4-methylbenzamide] | 2
5 | Cc1ccc(C(=O)NC2CC2)cc1-c1ccn2c(N3CCCC3)nnc2c1 [Example 16, N-Cyclopropyl-4-methyl-3-(3-pyrrolidin-1-yl-[1,2,4]triazolo[4,3-a]pyridin-7-yl)-benzamide] | 83
6 | Cc1ccc(C(=O)NC2CC2)cc1-c1cc2nnc(C(C)(C)C)n2cc1F [Example 18, 3-(3-tert-Butyl-6-fluoro-[1,2,4]triazolo[4,3-a]pyridin-7-yl)-N-cyclopropyl-4-methylbenzamide] | 3.2
7 | Cc1c(F)cc(C(=O)NC2CC2)cc1-c1cc2nnc(C(C)(C)C)n2cc1F [Example 19, 3-(3-tert-Butyl-6-fluoro-[1,2,4]triazolo[4,3-a]pyridin-7-yl)-N-cyclopropyl-5-fluoro-4-methylbenzamide] | 2
8 | Cc1c(F)cc(C(=O)NC2CC2)cc1-c1c(F)cn2c(C3CC3)nnc2c1F [Example 23, N-cyclopropyl-3-(3-cyclopropyl-6,8-difluoro[1,2,4]triazolo[4,3-a]pyridin-7-yl)-5-fluoro-4-methylbenzamide] | 10
9 | Cc1c(F)cc(C(=O)NC2CC2)cc1-c1ccn2c(C(C)C)nnc2c1 [Example 28, N-cyclopropyl-3-fluoro-5-(3-isopropyl[1,2,4]triazolo[4,3-a]pyridin-7-yl)-4-methylbenzamide] | 3
10 | Cc1ccc(C(=O)NC2CC2)cc1-c1ccn2c(-c3ccncc3Cl)nnc2c1 [Example 30, 3-[3-(3-Chloropyridin-4-yl)[1,2,4]triazolo[4,3-a]pyridin-7-yl]-N-cyclopropyl-4-methylbenzamide] | 38
11 | Cc1c(F)cc(C(=O)NC2CC2)cc1-c1ccn2c(-c3ccncc3Cl)nnc2c1 [Example 31, 3-[3-(3-Chloropyridin-4-yl)[1,2,4]triazolo[4,3-a]pyridin-7-yl]-N-cyclopropyl-5-fluoro-4-methylbenzamide] | 0.3

Other lines, results leading:

Row | IC50 [nM] | SMILES
12 | 30 | Cc1c(F)cc(C(=O)NC2CC2)cc1-c1ccn2c(C3CCOCC3)nnc2c1 [Example 33, N-Cyclopropyl-3-fluoro-4-methyl-5-[3-(tetrahydro-2H-pyran-4-yl)[1,2,4]triazolo[4,3-a]pyridin-7-yl]benzamide]
13 | 38 | CO[C@@H](C)c1nnc2cc(-c3cc(C(=O)NC4CC4)ccc3C)ccn12 [Example 38, N-Cyclopropyl-3-{3-[(1S)-1-methoxyethyl][1,2,4]triazolo[4,3-a]pyridin-7-yl}-4-methylbenzamide]
14 | 46 | Cc1c(F)cc(C(=O)NC2CC2)cc1-c1ccn2c(C(=O)N3CCCC3)nnc2c1 [Example 42, N-Cyclopropyl-3-fluoro-4-methyl-5-[3-(pyrrolidin-1-ylcarbonyl)[1,2,4]triazolo[4,3-a]pyridin-7-yl]benzamide]
15 | 3.1 | Cc1c(F)cc(C(=O)NC2CC2)cc1-c1ccn2c(C(C)(C)O)nnc2c1 [Example 45, N-Cyclopropyl-3-fluoro-5-[3-(1-hydroxy-1-methylethyl)[1,2,4]triazolo[4,3-a]pyridin-7-yl]-4-methylbenzamide]
16 | 11.9 | Cc1c(F)cc(C(=O)NC2CC2)cc1-c1c(F)cn2c(C(C)(C)N)nnc2c1F [Example 46, 3-[3-(1-Amino-1-methylethyl)-6,8-difluoro[1,2,4]triazolo[4,3-a]pyridin-7-yl]-N-cyclopropyl-5-fluoro-4-methylbenzamide]
17 | 15.4 | Cc1c(F)cc(C(=O)NC2CC2)cc1-c1c(F)cn2c(C(C)(C)N(C)C)nnc2c1F [Example 47, N-Cyclopropyl-3-{3-[1-(dimethylamino)-1-methylethyl]-6,8-difluoro[1,2,4]triazolo-[4,3-a]pyridin-7-yl}-5-fluoro-4-methylbenzamide]

— patent US8258122B2, “3-([1,2,4]triazolo[4,3-a]pyridin-7-yl)benzamide derivatives” (Almirall, S.A., priority 2007, dated 2012)
